# Assay: The compound was tested for its binding affinity towards sigma receptor in guinea pig brain membranes.
row,Structure (SMILES),Ki [nM]
1,Clc1ccc(C2=CCN(CCCCc3ccccc3)CC2)cc1,4.1

# Assay: as above
# Remark: another data set of the same source
row,Ki [nM],Structure (SMILES)
1,2.8,c1ccc(CCCN2CCN(c3ccc4ccccc4c3)CC2)cc1
2,2.9,Clc1ccc(N2CCN(CCCc3ccccc3)CC2)cc1
3,11400,O=C(c1ccccc1)N1CCNCC1
4,5.4,FC(F)(F)c1cccc(N2CCN(CCCCc3ccccc3)CC2)c1
5,2.6,c1ccc(CCCCN2CCN(c3ccccc3)CC2)cc1
6,11,Clc1cccc(N2CCN(CCc3ccccc3)CC2)c1
7,14300,COc1ccccc1C1(O)CCNCC1
